Structures can show the parent of a compound that is named as a salt. Where two headings read alike, the source gives them in different places.
Legend:
[1] = test system: gastronintestinal motility; experiment: Mouse Cecal Test (inhibition of gastrointestinal motility, charcoal in cecum); type: in vivo, mouse (male Charles River mice); conditions: po, read-out: ED50 ± S.E. (median effective dose), Mouse Cecal Test
Excerpt: The compounds of the present invention are useful in consequence of their valuable pharmacological properties. They are, for example, potent anti-diarrheal agents as evidenced by their ability to inhibit gastronintestinal motility as set out in the following tests:
The method used for this assay is a modification of the techniques previously described by Macht and BarbaGose, J. Amer. Pharm. Ass., 20, 558 (1931), and Janssen and Jageneau, J. Pharm. Pharmacol., 9, 381 (1957). Details are as follows:
A group of six, male Charles River mice weighing 20-25 g. which have been previously fasted for 24 hours are pretreated with the test compounds administered orally as a solution in water or suspended in 0.5% methyl cellulose. A constant volume of 10 ml./kg. is employed. Thirty minutes following administration of the test compounds, the animals are given a single oral dose of charcoal which consists of 0.2 ml. per mouse of 10% charcoal suspended in 1.0% methyl cellulose. Three and a half hours after charcoal administration, the animals are sacrificed and the cecum examined for the absence or presence of charcoal on an all-or-none basis.
The median effective dose (ED50) is then calculated for each compound using the logistic method of Berkson (1953).
The median effective dose ± standard Error ED50 ± SE) for the following representative compounds of the present invention in the Mouse Cecal Test are […]

[2] = test system: castor oil-induced diarrhea; experiment: Castor Oil-Induced Diarrhea in the Rat; type: in vivo, rat (adult Charles River male rats); conditions: po, read-out: ED50 ± S.E. (median effective dose) at 2 hours past castor oil administration
Experimental: Castor Oil-Induced Diarrhea in the Rat
Adult Charles River male rats are fasted in community cages for 24 hours prior to the test, with free access to water. The test compound is then administered intragastrically (suspended on 0.5% methyl cellulose) one hour prior to the intragastric adminstration of a dose of 1.0 ml. castor oil per rat. The rats are then observed for the presence or absence of diarrhea at hourly intervals for up to 8 hours past the castor oil adminstration. Using the method of Berkson (1953), the median effective dose (ED50) values are calculated at each hourly interval for the test compound.
The median effective dose at 2 hours past the castor oil adminstration for the following representative compounds of the present invention in the castor oil-induced diarrhea in the Rat test are: […]

[3] = IG, test compound 30 minutes before charcoal, cecum examined 3.5 hours after charcoal
[4] = IG, test compound one hour before 1.0 ml castor oil, 2 hours past castor oil

Compound	ED50 [1, 3] [mg/kg]	ED50 [2, 4] [mg/kg]	ED50 [1] [mg/kg]	ED50 ([2]; 2 h) [mg/kg]
C=CCC(CC1CC2CCN1CC2)(c1ccccc1)c1ccccc1 (centres unmarked) [2-(2,2-diphenyl-4-pentenyl)-1-azabicyclo[2.2.2]octane]	1.82 ± 0.45	1.13 ± 0.18		
CCCCCC(CC1CC2CCN1CC2)(c1ccccc1)c1ccccc1.O=C(O)/C=C\C(=O)O (centres unmarked) [2-(2,2-diphenylheptyl)-1-azabicyclo[2.2.2]octane maleate]			5.84 ± 1.94	10.2 ± 1.43
CCCCC(CC1CC2CCN1CC2)(c1ccccc1)c1ccccc1 (centres unmarked) [2-(2,2-diphenylhexyl)-1-azabicyclo[2.2.2]octane]	8.74 ± 3.95	4.57 ± 0.21		
CCCCCCC(CC1CC2CCN1CC2)(c1ccccc1)c1ccccc1.O=C(O)/C=C\C(=O)O (centres unmarked) [2-(2,2-diphenyloctyl)-1-azabicyclo[2.2.2]octane maleate]			20.7 ± 12.3	
CC(CC1CC2CCN1CC2)(c1ccccc1)c1ccccc1 (centres unmarked) [2-(2,2-diphenylpropyl)-1-azabicyclo[2.2.2]octane]	43.1 ± 15.5			
CC(C)=CCC(CC1CC2CCN1CC2)(c1ccccc1)c1ccccc1 (centres unmarked) [2-(5-methyl-2,2-diphenylhex-4-enyl)-1-azabicyclo[2.2.2]octane]	1.45 ± 0.66	1.74 ± 0.53		
CCOC(=O)C1(c2ccccc2)CCN(CCC(C#N)(c2ccccc2)c2ccccc2)CC1 [Diphenoxylate . HCl, reference compound]			3.12 ± 1.29	
